Experimental data reported in paper PMC6450887, “Metabolic resistance of the D-peptide RD2 developed for direct elimination of amyloid-β oligomers” (Scientific Reports, 2019).
“Also recorded” adds a separate entry of the source. Non-standard residues stand in square brackets, D forms with d. Residues, ends and D or L forms follow the SMILES beside them.

How the values were obtained:
[1] = Inhibition assay: degradation of L-peptide […] with and without RD2; format: in vitro ADME; conditions: 150 µM RD2 + 150 µM L-peptide; SGF, SIF 5 min; plasma, liver microsomes 30 min
Method: To investigate whether RD2 acts as potential inhibitor for the enzymes contained in SGF, SIF, human blood plasma and human liver microsomes, an exemplary L-peptide, […], was incubated in these media with and without RD2 and the potential inhibition of the L-peptide’s degradation was monitored. This control was intended to reveal a potential resistance of RD2 to degradation due to enzyme inhibition instead of pure degradation resistance. […] For this purpose, 150 µM of the L-peptide with or without 150 µM RD2 was incubated in SGF, SIF, human plasma and liver microsomes and both peptides were extracted from the media immediately or after 5 min (SGF, SIF) or 30 min (plasma, liver microsomes) with the method mentioned under point 2.3. Time dependent compound degradation or modification was followed by RP-HPLC (see 2.8).
For analysis of the inhibition assay with enzymes contained in SGF, SIF, plasma and liver microsomes (see 2.4), RD2, […] and remaining media components were separated using the mobile phases acetonitrile (A) and water (B) each supplemented with 0.15% TFA and a gradient from 0 to 50% solvent A in 15 min.

[2] = molecular target: CYP2C9 (Homo sapiens, UniProt P11712); assay: CYP isoform inhibition in human liver microsomes (Cyprotex)
Sequence of CYP2C9 (P11712 whole entry, canonical isoform): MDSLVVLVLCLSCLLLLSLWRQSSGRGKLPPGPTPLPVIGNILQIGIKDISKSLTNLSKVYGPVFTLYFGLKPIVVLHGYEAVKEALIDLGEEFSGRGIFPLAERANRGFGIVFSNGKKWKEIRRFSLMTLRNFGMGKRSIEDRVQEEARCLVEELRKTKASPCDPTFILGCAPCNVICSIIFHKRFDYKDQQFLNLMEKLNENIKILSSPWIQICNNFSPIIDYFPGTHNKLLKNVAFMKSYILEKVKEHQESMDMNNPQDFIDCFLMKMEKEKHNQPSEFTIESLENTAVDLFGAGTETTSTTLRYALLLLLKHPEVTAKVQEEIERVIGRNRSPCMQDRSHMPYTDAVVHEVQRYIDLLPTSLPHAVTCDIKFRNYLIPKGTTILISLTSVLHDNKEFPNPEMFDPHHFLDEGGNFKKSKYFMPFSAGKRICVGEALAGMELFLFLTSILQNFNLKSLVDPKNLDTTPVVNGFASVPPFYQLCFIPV
Method: (§2) The experiments were performed by Cyprotex. […] The reactions were terminated by methanol and the generated metabolites were monitored by LC-MS/MS or fluorescence. […] All assays were performed sevenfold. […] For all other substrates, the termination plates were centrifuged at 2,500 rpm and 4 °C for 30 min and aliquots of the supernatants were combined and transferred to fresh 96-well plates. Formic acid in deionized water (final concentration 0.1%) containing internal standard was added to the supernatants prior to cassette analysis by LC-MS/MS. A decrease in the formation of the metabolite compared to the vehicle control was used to calculate the IC50 values.

[3] = tested on: Rat PC12 (pheochromocytoma) cells; assay: MTT cell viability assay; format: cell-based; conditions: rat, 24 h, 2 µM
Method: (§1) Rat PC12 (pheochromocytoma) cells (Leibniz Institute DSMZ, Braunschweig, Germany) were cultivated in Dulbecco’s Modified Eagle Medium (DMEM) supplemented with 10% fetal bovine serum, 5% horse serum and 1% penicillin-streptomycin. 10,000 cells per well were seeded on collagen A-coated 96-well plates (Thermo Fisher Scientific, Waltham, USA) and incubated in a 95% humidified atmosphere with 5% CO2 at 37 °C for 24 h. Samples with untreated RD2 and RD2 or HSM-3 purified from human liver microsomes (see 2.8) in 10 mM sodium phosphate buffer (pH 7.4) were prepared. Buffer without peptides and Triton X-100 (cytotoxic compound) served as controls. The samples were added to the PC12 cells in quadruple and incubated in 95% humidified atmosphere with 5% CO2 at 37 °C for 24 h. Final concentrations were 2 µM untreated RD2, purified RD2, purified HSM-3 and 0.125% Triton X-100. Cell viability was then measured using the Cell Proliferation Kit I (MTT) (Roche, Basel, Switzerland) according to the manufacturer’s instruction. The final absorbance of the formazan product was determined as the absorbance at 570 nm subtracted by the absorbance at 660 nm. All results were normalized to cells that were treated with buffer only. The experiments were performed in triplicate.

[4] = MTT cell viability assay; format: cell-based, rat; conditions: rat, cell viability
Method: as §1

[5] = tested on: cynomolguses; conditions: cynomolgus monkey, in vivo, po; cited from earlier work
[6] = molecular target: CYP2D6 (Homo sapiens, UniProt P10635); assay: CYP isoform inhibition in human liver microsomes (Cyprotex); format: in vitro ADME
Sequence of CYP2D6 (P10635 whole entry, canonical isoform): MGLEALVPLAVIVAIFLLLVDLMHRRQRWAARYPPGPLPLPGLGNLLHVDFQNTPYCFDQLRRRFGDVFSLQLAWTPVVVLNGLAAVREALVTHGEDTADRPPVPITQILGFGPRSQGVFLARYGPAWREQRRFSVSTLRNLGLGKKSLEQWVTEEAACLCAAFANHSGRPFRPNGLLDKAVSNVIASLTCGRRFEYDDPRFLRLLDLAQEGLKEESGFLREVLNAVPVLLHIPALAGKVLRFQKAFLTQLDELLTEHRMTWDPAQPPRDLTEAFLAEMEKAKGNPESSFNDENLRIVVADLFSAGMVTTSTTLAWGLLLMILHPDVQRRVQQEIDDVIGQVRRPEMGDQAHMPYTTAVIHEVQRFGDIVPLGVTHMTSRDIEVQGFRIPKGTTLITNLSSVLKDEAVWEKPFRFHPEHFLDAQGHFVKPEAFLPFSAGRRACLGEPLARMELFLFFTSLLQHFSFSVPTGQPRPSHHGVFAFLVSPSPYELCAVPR
Method: The experiments were performed by Cyprotex. […] All assays were performed sevenfold.

[7] = molecular target: CYP3A4 (Homo sapiens, UniProt P08684); assay: as above
Sequence of CYP3A4 (P08684 whole entry): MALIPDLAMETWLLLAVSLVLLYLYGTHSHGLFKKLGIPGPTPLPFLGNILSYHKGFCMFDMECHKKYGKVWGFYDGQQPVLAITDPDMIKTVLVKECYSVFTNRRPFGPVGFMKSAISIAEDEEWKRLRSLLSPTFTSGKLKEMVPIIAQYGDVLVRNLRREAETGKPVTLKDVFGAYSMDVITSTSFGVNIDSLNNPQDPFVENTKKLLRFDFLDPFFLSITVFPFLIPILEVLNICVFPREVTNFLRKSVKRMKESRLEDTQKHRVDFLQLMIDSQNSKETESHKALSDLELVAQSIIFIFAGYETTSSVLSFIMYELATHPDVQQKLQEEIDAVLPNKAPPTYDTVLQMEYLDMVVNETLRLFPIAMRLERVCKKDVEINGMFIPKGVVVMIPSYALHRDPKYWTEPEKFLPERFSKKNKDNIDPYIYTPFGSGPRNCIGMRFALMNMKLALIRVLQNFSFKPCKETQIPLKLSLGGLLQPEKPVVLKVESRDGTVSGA
Method: as §2

[8] = molecular target: CYP2C19 (Homo sapiens, UniProt P33261); assay: as above
Sequence of CYP2C19 (P33261 whole entry): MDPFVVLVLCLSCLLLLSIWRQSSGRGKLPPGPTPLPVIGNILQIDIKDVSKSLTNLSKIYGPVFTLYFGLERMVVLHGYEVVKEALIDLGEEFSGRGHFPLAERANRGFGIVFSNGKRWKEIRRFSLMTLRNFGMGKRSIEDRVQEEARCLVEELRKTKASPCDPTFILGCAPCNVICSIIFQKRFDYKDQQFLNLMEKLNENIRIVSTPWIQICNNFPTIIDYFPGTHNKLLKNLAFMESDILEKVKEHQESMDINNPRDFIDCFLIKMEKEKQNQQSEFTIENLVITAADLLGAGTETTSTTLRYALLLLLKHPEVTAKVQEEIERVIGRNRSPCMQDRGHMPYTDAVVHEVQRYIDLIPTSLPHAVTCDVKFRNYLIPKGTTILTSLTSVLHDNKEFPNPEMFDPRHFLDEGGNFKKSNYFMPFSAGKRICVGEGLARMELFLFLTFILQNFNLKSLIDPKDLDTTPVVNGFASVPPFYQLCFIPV
Method: as §2

Q: For `CC(C)C[C@@H](NC(=O)[C@H](NC(=O)[C@H]1CCCN1)[C@H](C)O)C(=O)N[C@H](Cc1c[nH]cn1)C(=O)N[C@@H](C(=O)N[C@H](Cc1c[nH]cn1)C(=O)N[C@H](CC(N)=O)C(=O)N[C@H](CCCNC(=N)N)C(=O)N[C@H](CCCNC(=N)N)C(=O)N[C@H](CCCNC(=N)N)C(=O)N[C@H](CCCNC(=N)N)C(=O)N[C@H](CCCNC(=N)N)C(N)=O)[C@H](C)O` [RD2, ptlhthnrrrrr] (H-[dP][dT][dL][dH][dT][dH][dN][dR][dR][dR][dR][dR]-NH2), which “influence of RD2 on degradation of the L-peptide KLVFFRRRRRR” value [1] is on record?
A: The value was “not influenced; also recorded: did not influence the degradation of the L-peptide in any of the media”.

Q: And the “inhibition of CYP2C9” value ([2]; concentration range 0 to 25 µM)?
A: Its value is “did not inhibit”.

Q: What about the inhibition at 0.25 µM ([2]; human, human liver microsomes) of the same molecule?
A: Its inhibition at 0.25 µM is 6.15%.

Q: What about the inhibition at 1 µM ([2]; human, human liver microsomes) of the same molecule?
A: The inhibition at 1 µM was -0.871%.

Q: What about the inhibition at 2.5 µM ([2]; human, human liver microsomes) of the same molecule?
A: The inhibition at 2.5 µM was 0.607%.

Q: And the inhibition at 10 µM ([2]; human, human liver microsomes)?
A: The inhibition at 10 µM was -7.38%.

Q: What about the inhibition at 25 µM ([2]; human, human liver microsomes) of the same molecule?
A: Its inhibition at 25 µM is -26.8%.

Q: What about the cell viability [3] of the same molecule?
A: The cell viability was 93 ± 6%.

Q: What about the viability at 24 h, 2 µM [4] of the same molecule?
A: Its viability at 24 h, 2 µM is 99 ± 4%.

Q: And the “toxic effects of orally administered RD2” value [5]?
A: The value was “does not cause toxic effects up to high doses”.

Q: And the “inhibition of CYP2D6” value ([6]; concentration range 0 to 25 µM)?
A: Its value is “did not inhibit”.

Q: What about the inhibition at 0.25 µM ([6]; human, human liver microsomes, 0.25 µM RD2) of the same molecule?
A: The inhibition at 0.25 µM was 1.33%.

Q: And the inhibition at 1 µM ([6]; human, human liver microsomes, 1 µM RD2)?
A: The inhibition at 1 µM was 0.671%.

Q: What about the inhibition at 2.5 µM ([6]; human, human liver microsomes, 2.5 µM RD2) of the same molecule?
A: Its inhibition at 2.5 µM is 3.53%.

Q: And the inhibition at 10 µM ([6]; human, human liver microsomes, 10 µM RD2)?
A: Its inhibition at 10 µM is -5.9%.

Q: What about the inhibition at 25 µM ([6]; human, human liver microsomes, 25 µM RD2) of the same molecule?
A: The inhibition at 25 µM was -9.57%.

Q: And the “inhibition of CYP3A4” value ([7]; concentration range 0 to 25 µM)?
A: Its value is “did not inhibit”.

Q: What about the inhibition at 0.25 µM ([7]; human, human liver microsomes) of the same molecule?
A: The inhibition at 0.25 µM was -0.223%.

Q: And the inhibition at 1 µM ([7]; human, human liver microsomes)?
A: Its inhibition at 1 µM is 5.77%.

Q: And the inhibition at 2.5 µM ([7]; human, human liver microsomes)?
A: The inhibition at 2.5 µM was 1.71%.

Q: And the inhibition at 10 µM ([7]; human, human liver microsomes)?
A: Its inhibition at 10 µM is -3.08%.

Q: What about the inhibition at 25 µM ([7]; human, human liver microsomes) of the same molecule?
A: Its inhibition at 25 µM is -12%.

Q: And the “inhibition of CYP2C19” value ([8]; concentration range 0 to 25 µM)?
A: The value was “did not inhibit”.

Q: And the inhibition at 0.25 µM ([8]; human, human liver microsomes)?
A: The inhibition at 0.25 µM was 7.64%.

Q: What about the inhibition at 1 µM ([8]; human, human liver microsomes) of the same molecule?
A: The inhibition at 1 µM was 2.47%.

Q: And the inhibition at 2.5 µM ([8]; human, human liver microsomes)?
A: The inhibition at 2.5 µM was 2.54%.

Q: And the inhibition at 10 µM ([8]; human, human liver microsomes)?
A: The inhibition at 10 µM was -5.77%.

Q: What about the inhibition at 25 µM ([8]; human, human liver microsomes) of the same molecule?
A: Its inhibition at 25 µM is -45.5%.
